The record followed here is patent US12365686B2, “Compound as porcupine inhibitor and use thereof” (JIANGSU KANION PHARMACEUTICAL CO., LTD., priority 2019, dated 2025).

In one data set the test system is Capan-2 cells. Nature of the data set: Anti-proliferative activity on Capan-2 cells. Type of data set: cell-based. Conditions: Homo sapiens, Capan-2, 120 h; 5 days, CellTiter-Glo. The procedure: 2. Assay of Anti-Proliferative Activity on Capan-2 Cells
Capan-2 cells were planted in a white 96-well plate with 80 μL of cell suspension per well, which contained 5000 Capan-2 cells. The cell plate was placed in a carbon dioxide incubator for culture overnight.
The assay compound was serially diluted 3-fold with a discharge gun to the 9th concentration, that is, from 200 μM to 30 nM, in duplicate. 78 μL of medium was added to the middle plate, and then 2 μL of the serially diluted compound was transferred to each well of the middle plate according to the corresponding position. After mixing, 20 μL of the mixture was transferred to each well of the cell plate. The cell plate was incubated in a carbon dioxide incubator for 5 days. Another cell plate was prepared, and read on the day of drug addition. The signal value was used as the maximum value (The value of Max in the equation below) in data analysis. 25 μL of chemiluminescence detection reagent for cell viability was added to each well of this cell plate, and this cell plate was incubated at room temperature for 10 minutes to stabilize the luminescence signal. A multi-label analyzer was used to read results.
After the cell plate was cultured for 5 days, 25 μL of Promega CellTiter-Glo reagent was added to each well of the cell plate. The cell plate was incubated at room temperature for 10 minutes to stabilize the luminescence signal. A multi-label analyzer was used to read results.
The value of IC50 can be obtained by curve fitting. Table 2 provides the inhibitory activity of the compounds of the present disclosure on Capan-2 cell proliferation.
In general terms: Cellular ATP, detected with luciferase, serves as a proxy for viable cell number.

Data set [1] concerns human pancreatic cancer Capan-2 xenograft tumor. Nature of the data set: In vivo drug efficacy on Capan-2 transplanted tumor in nude mice. Particulars: BID, Capan-2 Xenograft model. As for the experimental part:
3. Assay of In Vivo Drug Efficacy on Capan-2 Transplanted Tumor in Nude Mice
Capan-2 cells were cultured in McCoy's 5A medium, containing 10% fetal bovine serum FBS, in a 37° C. incubator with 5% CO2. Tumor cells were collected after passaging and growing to a suitable concentration and during the logarithmic growth phase. The cells resuspended in McCoy's 5A medium were counted and the cell suspension was adjusted to a concentration of 2×10^7/mL for inoculation.
Establishment of human pancreatic cancer Capan-2 xenograft tumor. Cells were collected and the concentration was adjusted to 2×10^7 (resuspend with McCoy's 5A medium to a cell suspension containing 50% Martigel). Under aseptic conditions, 0.1 mL of tumor cells was injected subcutaneously into the right back of the mouse, and the number of cells inoculated per mouse was 2×10^6. After the tumor was grown to a certain size, digital vernier calipers was used to measure the length (a) and width (b) of the tumor, and the tumor volume was calculated. The calculation formula of tumor volume (TV) was: TV=a×b^2/2.
Capan-2 tumor cells were inoculated. When the tumor was grown to about 150 cubic millimeters, mice were divided into groups with 6 mice in each group. The day of grouping was regarded as day 0, and the drug was administered on the day of grouping. During the assay, the animal's body weight and tumor size were measured twice a week, and the animal's clinical symptoms were observed and recorded every day. For each administration, the most recently weighed animal body weight was referred to.
The evaluation index of anti-tumor activity is relative tumor proliferation rate T/C (%), wherein T/C (%)>40% means ineffective, and T/C (%)<40% and statistically P<0.05 means effective. The calculation formula of T/C (%) is: T/C (%)=(TRTV/CRTV)×100%. TRTV is relative tumor volume of the treatment group, and CRTV is relative tumor volume of the negative control group. TGI (%)^b tumor inhibition rate=(average tumor volume or weight of negative control group-average tumor volume or weight of administration group)/average tumor volume or weight of negative control group×100%. TGI (%)^a=[(1−(average tumor volume of a certain administration group at the time of measurement-average tumor volume of the administration group at the beginning of the administration))/(average tumor volume of vehicle control group at the time of measurement-average tumor volume of the vehicle control group at the beginning of the administration)]×100%.

Data set [2] concerns STF reporter gene for WNT pathway (Porcupine of the Wnt signaling pathway). Nature of the data set: Inhibitory activity on Super-Top-Flash (STF) reporter gene. Type of data set: cell-based. Conditions: HEK293 STF and L wnt3A cells 1:1, 24 hours, Bright-Glo. The procedure:
1. Assay of Inhibitory Activity on Super-Top-Flash (STF) Reporter Gene
HEK293 STF and L wnt3A cells were planted at a ratio of 1:1 in a white 96-well plate with 80 μL of cell suspension per well, which contained 20,000 HEK293 STF cells and 20,000 L wnt3A cells. The cell plate was placed in a carbon dioxide incubator for culture overnight.
The assay compound was serially diluted 5-fold with a discharge gun to the 8th concentration, that is, from 400 μM to 5.12 nM, in duplicate. 78 μL of medium was added to the middle plate, and then 2 μL of the serially diluted compound was transferred to each well of the middle plate according to the corresponding position. After mixing, 20 μL of the mixture was transferred to each well of the cell plate. The cell plate was placed in a carbon dioxide incubator for 24 hours.
100 μL of Promega Bright-Glo reagent was added to each well of the cell plate, and the cell plate was incubated at room temperature for 10 minutes to stabilize the luminescence signal. A multi-label analyzer was used to read results.
The original data of the multi-label analyzer was used for calculation, and the value of IC50 can be obtained by curve fitting. Table 1 provides data of the inhibitory activity of the compounds of the present disclosure on the Wnt signaling pathway.
Background: A reporter such as luciferase makes a cellular process visible.

The nature of data set [3]: Pharmacokinetic evaluation of compounds in mice. Type of data set: in vivo. Conditions: mouse, plasma, male CD-1 mice; for clearance / bioavailability / half-life / Vd: IV 0.5 mg/kg; for bioavailability / AUC(0-t): PO 2.5 mg/kg; for half-life: read-out: T1/2 IV (converted); for Vd: read-out: Vdss; for AUC(0-t): read-out: AUC0-last PO; for Cmax: single dose, route not stated (IV 0.5 mg/kg, PO 2.5 mg/kg). As for the experimental part:
Assay 4: Pharmacokinetic Evaluation of Compounds
Assay purpose: Pharmacokinetics of compounds in […] mice was assayed.
CD-1 mice (male, 7-9 weeks old, Shanghai Slack)
The pharmacokinetic characteristics of rodents after intravenous (IV) and oral (PO) administration of compounds were assayed by standard protocols. In the assay, mice were given a single intravenous injection and oral administration. The vehicle for intravenous injection was water. The oral vehicle was 0.5% hypromellose. Four male CD-1 mice were used in this project. Two mice were administered intravenously at a dose of 0.5 mg/kg, and plasma samples were collected at 0 h (before administration) and 0.083, 0.25, 0.5, 1, 2, 4, 8, and 24 h after administration. The other two mice were orally administered by gavage at a dose of 2.5 mg/kg, and plasma samples were collected at 0 h (before administration) and 0.25, 0.5, 1, 2, 4, 8, and 24 h after administration. Whole blood samples within 24 hours were collected, and centrifuged at 3000 g for 15 minutes. The supernatant was separated to obtain a plasma sample, and protein was precipitated by adding 4 times volume of acetonitrile solution containing internal standard. The mixture was centrifuged to obtain a supernatant, and an equal volume of water was added to the obtained supernatant. The mixture was then centrifuged to obtain a supernatant for injection. The blood drug concentration was quantitatively analyzed by LC-MS/MS analysis method, and pharmacokinetic parameters were calculated, such as peak concentration (Cmax), clearance rate (CL), half-life (T1/2), […] (Vdss), area under the drug-time curve (AUC0-last), and bioavailability (F), etc.
The assay results are shown in Table 4: The compounds of the present disclosure have good pharmacokinetic properties.

Counter-ions that a name gives are not always drawn.

Regarding `Cc1cc(-c2ncc(CNc3nccn4c(-c5ccccc5)cnc34)cc2C)ccn1` [Compound 1], in the data set with Capan-2 cells, 0.71 nM corresponded to half-maximal inhibition (IC50). Further, in data set [1] (5 mg/Kg, 31 days), the T/C % is given as 21.58% and the TGI % is 96.7%. For the same compound, 0.12 nM corresponded to half-maximal inhibition in data set [2] (IC50). Further, in data set [3], the clearance (in general, the volume of plasma or blood freed of the substance per unit of time) came out at 5.05 mL/min/kg; the bioavailability – broadly, dose-corrected exposure relative to a reference, in per cent – was found to be 76.3%; the half-life was 2.23 h; the Vd is 0.633 L/kg. Also, in data set [3], the AUC(0-t) worked out at 16.5 µM·h and the peak level (Cmax) was 3030 nM.
Take `Cc1cc(-c2ncc(CNc3nccn4c(-c5ccccc5)ncc34)cc2C)ccn1` [Compound 11]: in data set [1] (5 mg/Kg, 31 days), the T/C % came to 31.29% and the TGI % is given as 82.8%. Besides, half-maximal inhibition in data set [2] (IC50) required 0.05 nM.
As for `Cc1cc(-c2ncc(CNc3nccn4c(-c5cc(F)cc(F)c5)cnc34)cc2C)ccn1` [Compound 30 (hydrochloride)], the 50% inhibitory concentration (IC50) (usually the concentration needed to halve the response being measured) with Capan-2 cells is 0.71 nM. In data set [1] (2.5 mg/Kg), this compound registered a T/C % of 40.18% and a TGI % of 66.67%. In data set [1] (5 mg/Kg, 31 days), this compound gave a T/C % of 25.31% and a TGI % of 84.93%. This compound came in with a half-inhibitory concentration (IC50) in data set [2] of 0.52 nM. In data set [3], the clearance amounted to 5.75 mL/min/kg, the bioavailability worked out at 98.8%, the half-life is 2.5 h and the Vd is 0.666 L/kg. Besides, in data set [3], the AUC(0-t) was determined as 16.2 µM·h and the peak level (Cmax) was 2580 nM.
As for `Cc1cc(-c2ncc(CNc3nccn4c(-c5cc(F)cc(F)c5)cnc34)cc2OCCN(C)C)ccn1` [Compound 33], the concentration for half-maximal inhibition (IC50) with Capan-2 cells is 2.3 nM. In data set [1] (5 mg/Kg, 31 days), this compound returned a T/C % of 17.71% and a TGI % of 92.6%. For the same compound, in data set [3], the clearance is 35.1 mL/min/kg, the bioavailability turned out to be 37.4%, the half-life is 3.69 h and the Vd was 9.52 L/kg. In data set [3], the AUC(0-t) is 0.975 µM·h and the concentration peaked (Cmax) at 107 nM.
`Cc1cc(-c2ncc(CNc3nccn4c(-c5cc(F)cc(F)c5)cnc34)cc2F)ccn1` [Compound 36 (formate)] gave an IC50 in the data set on Capan-2 cells of 0.21 nM. In data set [1] (5 mg/Kg, 31 days), this compound returned a T/C % of 21% and a TGI % of 88.86%. For the same compound, in data set [3], the clearance amounted to 6.5 mL/min/kg, the bioavailability was 50.6%, the half-life is 3.05 h and the Vd worked out at 1.35 L/kg. Besides, in data set [3], the AUC(0-t) was 7.23 µM·h and the Cmax (commonly the maximum level reached in the sampled fluid or tissue) amounted to 980 nM.
